According to article PMC9127750, “Structure-based design of CDC42 effector interaction inhibitors for the treatment of cancer” (Cell reports, 2022):

Test system: WM3248 melanoma cells, 486 antibodies
Assay: Reverse phase protein arrays (RPPA);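 as to RPPA ACC1.R.C: ratio of treated to vehicle (0 µM) normalized linear protein signal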;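 as to RPPA AMPK.a2 pS345.R.V: ratio of treated to vehicle (0 µM) normalized linear protein signal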;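 as to RPPA AMPKa pT172.R.C: ratio of treated to vehicle (0 µM) normalized linear protein signal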;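 as to RPPA ASNS.R.V: ratio of treated to vehicle (0 µM) normalized linear protein signal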;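 as to RPPA Akt1.R.V: ratio of treated to vehicle (0 µM) normalized linear protein signal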;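 as to RPPA Atg5.R.C: ratio of treated to vehicle (0 µM) normalized linear protein signal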;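 as to RPPA Bim.R.V: ratio of treated to vehicle (0 µM) normalized linear protein signal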
Assay type: cell-based, Human
Settings: 20 uM
Source text: Pellets were snap frozen in liquid nitrogen and shipped to MD Anderson Cancer Center core RPPA facility for RPPA analysis (Table S5). Three biological replicates for each sample were generated.
Nomenclatures on the RPPA heatmaps: name_of_antibody.species_of_antibody.status_of_antibody. V - antibody validated; C - validation of antibody in progress; Q - antibody nonspecific; E – under evaluation; antibodies raised in M - mouse, G - goat, R - rabbit, or T - rat.

Structure (SMILES): CN(C)c1cccc(Nc2cc(-c3ccccc3)nc(C3CCNCC3)n2)c1 [ARN22089, N1,N1-dimethyl-N3-(6-phenyl-2-(piperidin-4-yl)pyrimidin-4-yl)benzene-1,3-diamine]
- RPPA p38.a.M.V Average: 0.905
- RPPA p44.42.MAPK.R.V Average: 1.030
- RPPA p53.R.C Average: 1.157
- RPPA p70.S6K1.R.V Average: 1.027
- RPPA p70.S6K_pT389.R.V Average: 0.996
- RPPA p90RSK_pT573.R.C Average: 1.014
- RPPA A.Raf.R.V (20W1): 1.011
- RPPA ACC1.R.C (20W1): 0.890
- RPPA ACLY_pS455.R.V (20W1): 1.224
- RPPA ACSL1.R.V (20W1): 0.955
- RPPA ACVRL1.R.C (20W1): 0.972
- RPPA ADAR1.M.V (20W1): 1.307
- RPPA ALKBH5.R.V (20W1): 0.885
- RPPA AMPK.a2_pS345.R.V (20W1): 1.081
- RPPA AMPKa.R.C (20W1): 1.032
- RPPA AMPKa_pT172.R.C (20W1): 3.755
- RPPA AR.R.V (20W1): 0.874
- RPPA ARID1A.R.C (20W1): 1.514
- RPPA ASNS.R.V (20W1): 0.742
- RPPA ATM.R.V (20W1): 1.024
- RPPA ATM_pS1981.R.V (20W1): 1.111
- RPPA ATP5A.M.C (20W1): 1.018
- RPPA ATP5H.R.V (20W1): 1.117
- RPPA ATR.R.V (20W1): 1.005
- RPPA ATRX.R.C (20W1): 1.357
- RPPA ATR_pS428.R.C (20W1): 1.054
- RPPA AceCS1.R.V (20W1): 0.907
- RPPA Akt1.R.V (20W1): 0.811
- RPPA Akt1_pS473.R.V (20W1): 1.162
- RPPA Akt2.R.V (20W1): 0.873
- RPPA Akt.R.V (20W1): 0.913
- RPPA Akt_pS473.R.V (20W1): 0.795
- RPPA Akt_pT308.R.V (20W1): 0.845
- RPPA Ambra1_pS52.R.C (20W1): 1.101
- RPPA Annexin.I.M.V (20W1): 0.972
- RPPA Atg3.R.V (20W1): 0.914
- RPPA Atg4B.R.C (20W1): 0.881
- RPPA Atg5.R.C (20W1): 0.779
- RPPA Atg7.R.V (20W1): 0.813
- RPPA Aurora.A.R.C (20W1): 0.656
- RPPA Aurora.ABC_pT288_pT232_pT198.R.C (20W1): 0.959
- RPPA Aurora.B.R.V (20W1): 1.341
- RPPA Axl.R.V (20W1): 0.908
- RPPA B7.H3.R.C (20W1): 0.771
- RPPA B7.H4.R.C (20W1): 1.034
- RPPA B.Raf.R.C (20W1): 0.907
- RPPA B.Raf_pS445.R.V (20W1): 0.934
- RPPA BAP1.M.V (20W1): 0.877
- RPPA BCL2A1.R.V (20W1): 0.987
- RPPA BMK1.Erk5_pT218_Y220.R.V (20W1): 0.909
- RPPA BRCA1.M.C (20W1): 1.231
- RPPA BRD4.R.V (20W1): 1.228
- RPPA Bad_pS112.R.V (20W1): 1.119
- RPPA Bak.R.C (20W1): 1.000
- RPPA Bax.R.V (20W1): 0.927
- RPPA Bcl2.R.C (20W1): 1.064
- RPPA Bcl.xL.R.V (20W1): 1.008
- RPPA Beclin.R.C (20W1): 0.873
- RPPA BiP.GRP78.M.C (20W1): 0.914
- RPPA Bid.R.C (20W1): 0.954
- RPPA Bim.R.V (20W1): 1.054
- RPPA X4E.BP1.R.V (20W1): 1.323
- RPPA X4E.BP1_pS65.R.V (20W1): 0.718
- RPPA X4E.BP1_pT37_T46.R.V (20W1): 0.651
- RPPA X14.3.3.zeta.R.V (20W1): 0.801
- RPPA X14.3.3βR.V (20W1): 1.140
- RPPA X14.3.3εM.C (20W1): 0.864
- RPPA b.Actin.R.C (20W1): 1.078
- RPPA b.Catenin.R.V (20W1): 0.844
- RPPA b.Catenin_pT41_S45.R.V (20W1): 1.120
- RPPA c.Abl.R.V (20W1): 1.161
- RPPA c.IAP2.R.C (20W1): 1.080
- RPPA A.Raf.R.V (20W3): 0.992
- RPPA A.Raf_pS299.R.C (20W3): 0.987
- RPPA ACC1.R.C (20W3): 0.779
- RPPA ACC_pS79.R.V (20W3): 0.983
- RPPA ACLY_pS455.R.V (20W3): 0.970
- RPPA ACSL1.R.V (20W3): 0.853
- RPPA ACVRL1.R.C (20W3): 0.984
- RPPA ALKBH5.R.V (20W3): 0.991
- RPPA AMPK.a2_pS345.R.V (20W3): 1.134
- RPPA AMPKa.R.C (20W3): 1.122
- RPPA AMPKa_pT172.R.C (20W3): 2.117
- RPPA AR.R.V (20W3): 1.261
- RPPA ARID1A.R.C (20W3): 1.115
- RPPA ASNS.R.V (20W3): 1.296
- RPPA ATM.R.V (20W3): 0.991
- RPPA ATM_pS1981.R.V (20W3): 0.989
- RPPA ATP5A.M.C (20W3): 0.955
- RPPA ATP5H.R.V (20W3): 0.967
- RPPA ATR.R.V (20W3): 0.989
- RPPA ATR_pS428.R.C (20W3): 1.254
- RPPA AceCS1.R.V (20W3): 0.994
- RPPA Akt1.R.V (20W3): 1.129
- RPPA Akt1_pS473.R.V (20W3): 1.135
- RPPA Akt2.R.V (20W3): 1.035
- RPPA Akt2_pS474.R.C (20W3): 1.166
- RPPA Akt.R.V (20W3): 0.976
- RPPA Akt_pS473.R.V (20W3): 1.265
- RPPA Ambra1_pS52.R.C (20W3): 0.996
- RPPA Annexin.I.M.V (20W3): 0.990
- RPPA Annexin.VII.M.V (20W3): 0.885
- RPPA Atg3.R.V (20W3): 1.076
- RPPA Atg4B.R.C (20W3): 1.076
- RPPA Atg5.R.C (20W3): 0.960
- RPPA Aurora.A.R.C (20W3): 0.983
- RPPA Aurora.ABC_pT288_pT232_pT198.R.C (20W3): 1.060
- RPPA Axl.R.V (20W3): 1.478
- RPPA B7.H3.R.C (20W3): 1.058
- RPPA B7.H4.R.C (20W3): 1.107
- RPPA B.Raf_pS445.R.V (20W3): 1.167
- RPPA BAP1.M.V (20W3): 0.964
- RPPA BMK1.Erk5_pT218_Y220.R.V (20W3): 0.926
- RPPA BRCA1.M.C (20W3): 0.977
- RPPA BRD4.R.V (20W3): 1.002
- RPPA Bad_pS112.R.V (20W3): 1.163
- RPPA Bax.R.V (20W3): 1.054
- RPPA Bcl2.R.C (20W3): 0.975
- RPPA Bcl.xL.R.V (20W3): 1.190
- RPPA Beclin.R.C (20W3): 0.948
- RPPA BiP.GRP78.M.C (20W3): 1.003
- RPPA Bid.R.C (20W3): 0.943
- RPPA Bim.R.V (20W3): 0.917
- RPPA X4E.BP1.R.V (20W3): 1.550
- RPPA X4E.BP1_pS65.R.V (20W3): 1.024
- RPPA X4E.BP1_pT37_T46.R.V (20W3): 1.034
- RPPA X14.3.3βR.V (20W3): 0.902
- RPPA X14.3.3εM.C (20W3): 0.973
- RPPA b.Actin.R.C (20W3): 0.977
- RPPA b.Catenin.R.V (20W3): 1.021
- RPPA b.Catenin_pT41_S45.R.V (20W3): 1.082
- RPPA c.Abl.R.V (20W3): 1.234
- RPPA c.Abl_pY412.R.C (20W3): 1.114
- C.Raf.R.C RPPA level (Average): 1.061
- CA9.R.C RPPA level (Average): 0.925
- CD2.M.C RPPA level (Average): 0.936
- CD4.R.V RPPA level (Average): 1.006
- CD5.M.C RPPA level (Average): 0.966
- CD20.R.C RPPA level (Average): 1.099
- CD31.M.V RPPA level (Average): 0.988
- CD38.R.C RPPA level (Average): 1.131
- CD44.R.C RPPA level (Average): 0.982
- CD45.M.V RPPA level (Average): 0.957
- CD49b.M.V RPPA level (Average): 0.989
- CD68.M.C RPPA level (Average): 0.999
- CD74.M.V RPPA level (Average): 0.998
- CD134.R.V RPPA level (Average): 0.994
- CD171.M.V RPPA level (Average): 0.762
- CDK1_pT14.R.C RPPA level (Average): 1.056
- CDK9.R.V RPPA level (Average): 0.964
- CDKN2A.R.C RPPA level (Average): 1.024
- CDT1.R.V RPPA level (Average): 0.971
- CENP.A.R.V RPPA level (Average): 1.548
- CHD1L.R.V RPPA level (Average): 0.954
- CIITA.R.C RPPA level (Average): 1.002
- COG3.R.V RPPA level (Average): 1.098
- CRABP1.R.C RPPA level (Average): 1.025
- CRABP2.R.V RPPA level (Average): 0.977
- CREB_pS133.R.C RPPA level (Average): 1.270
- CSK.R.C RPPA level (Average): 0.987
- Calnexin.R.V RPPA level (Average): 0.956
- Caspase.7.cleaved..R.C RPPA level (Average): 0.982
- Caspase.8.M.Q RPPA level (Average): 0.929
